Measured values published in paper PMC6152131, “Pharmacokinetic Study of Biotransformation Products from an Anxiolytic Fraction of Tilia americana” (Molecules : A Journal of Synthetic Chemistry and Natural …, 2017).
Read-outs that look alike come from different tables or passages of the source.

Assays:
[1] = Stability of flavonoids and biotransformation products in mouse plasma under different handling conditions; format: in vitro ADME, mice
Method: (§1) Plasma dried pulverized samples were extracted with methanol (HPLC grade, Merck). The extracts were filtered with Teflon membrane dimensions 0.45 μm by 13 mm (Millex®-LCR); 20 μL of each filtered sample was injected into the HPLC equipment. The measurements were performed in a (Waters corporation, Milford, CT, USA) 2695 HPLC with a diode array detector (Waters 2996) and processed with the Empower Pro 1.0 software. A Chromolith Performance® RP-18e 100 × 4.6 mm (Merck KGaA, Darmstadt, Germany) was used. The mobile phase consisted of a mixture of acetonitrile and water with the proportion 55:45 and a flow rate of 1 mL/min. The concentrations of the flavonoids and the biotransformation products were obtained by comparison with a pre-built calibration curve at λ = 220 nm.
[…] The investigation enclosed here expected manipulation conditions during all the sample storage and process periods, which included the stability data from the freeze/thaw, bench-top, autosampler, and long–term stability tests.
For all stability studies, fresh QC samples were evaluated by using a freshly prepared standard curve for the measurements. The concentrations obtained from all the stability studies were compared with the fresh QC samples, and the percentage concentration deviation was calculated. The analytes were considered stable in the mouse plasma when the concentration difference between the freshly prepared samples and the stability samples was less than 15%.

[2] = Plasma concentration after a single oral dose of the anxiolytic fraction (HPLC); format: in vivo, ICR mice; conditions: oral 200 mg/kg anxiolytic fraction, immediately after administration and over 24 h
Method: Eleven groups of ten animals each were randomly formed. All animals were orally administered with 200 mg/kg of the active fraction. Animals were anaesthetized with ether, and blood samples were obtained from the retroorbital sinus with a heparinized capillary, each group was examined at different times (0, 5, 10, 15, 30, 60, 120, 240, 480, 720, and 1440 min) after the active fraction was administered. […] Then the plasma samples were frozen and lyophilized. The dry plasma was subsequently used to extract and measure the concentration of the flavonoids and biotransformation products.
as §1
To evaluate the suitability of the assay for the pharmacokinetic studies, 200 mg/kg of the active fraction was orally administered to the animals. Ten animals were used in each group at different times (0, 5, 10, 15, 30, 60, 120, 240, 480, 720, and 1440 min). Pharmacokinetic calculations were performed using the observed data. All data was subsequently processed using the PKSolver add-in program for Microsoft Excel written in Visual Basic for Applications. All values obtained were expressed in mean ± standard deviation.

[3] = set-up: method as in PMID 11151743; conditions: glucoronides and sulphates of quercetin found in plasma; cited from earlier work
[4] = system: intestinal epithelial cells; set-up: method as in PMID 25761590; conditions: compared with the aglycone kaempherol; cited from earlier work
[5] = room temperature (25 °C), 0 h, high nominal conc.
[6] = room temperature (25 °C), 0 h, high nominal conc. (rutin 7.00; quercetin glucoside, quercitrin, tiliroside 44.37; kaempferol 4.50; m-HPAA, p-HPAA, DOPAC 31.25 µg/mL), n = 6
[7] = room temperature (25 °C), 0 h, low nominal conc.
[8] = room temperature (25 °C), 0 h, low nominal conc. (rutin 1.75; quercetin glucoside, quercitrin, tiliroside 11.02; kaempferol 1.12; m-HPAA, p-HPAA, DOPAC 1.95 µg/mL), n = 6
[9] = room temperature (25 °C), 0 h, medium nominal conc.
[10] = room temperature (25 °C), 8 h, high nominal conc.
[11] = room temperature (25 °C), 8 h, high nominal conc. (7.00; 44.37; 4.50; 31.25 µg/mL), n = 6
[12] = room temperature (25 °C), 8 h, low nominal conc.
[13] = room temperature (25 °C), 8 h, low nominal conc. (1.75; 11.02; 1.12; 1.95 µg/mL), n = 6
[14] = room temperature (25 °C), 8 h, medium nominal conc.
[15] = room temperature (25 °C), 24 h, high nominal conc.
[16] = room temperature (25 °C), 24 h, high nominal conc. (7.00; 44.37; 4.50; 31.25 µg/mL), n = 6
[17] = room temperature (25 °C), 24 h, low nominal conc.
[18] = room temperature (25 °C), 24 h, low nominal conc. (1.75; 11.02; 1.12; 1.95 µg/mL), n = 6
[19] = room temperature (25 °C), 24 h, medium nominal conc.
[20] = storage stability, high nominal conc.
[21] = storage stability, high nominal conc. (7.00; 44.37; 4.50; 31.25 µg/mL), n = 6
[22] = storage stability, low nominal conc.
[23] = storage stability, low nominal conc. (1.75; 11.02; 1.12; 1.95 µg/mL), n = 6
[24] = storage stability, medium nominal conc.
[25] = storage stability, medium nominal conc. (3.50; 22.18; 2.24; 7.81 µg/mL), n = 6

SMILES	Accuracy Bias 0 h [1, 5] [%]	Observed Conc. 0 h [1, 6] [µg/mL]	Accuracy Bias 0 h [1, 7] [%]	Observed Conc. 0 h [1, 8] [µg/mL]	Accuracy Bias 0 h [1, 9] [%]	Accuracy Bias 8 h [1, 10] [%]	Observed Conc. 8 h [1, 11] [µg/mL]	Accuracy Bias 8 h [1, 12] [%]	Observed Conc. 8 h [1, 13] [µg/mL]	Accuracy Bias 8 h [1, 14] [%]	Accuracy Bias 24 h [1, 15] [%]	Observed Conc. 24 h [1, 16] [µg/mL]	Accuracy Bias 24 h [1, 17] [%]	Observed Conc. 24 h [1, 18] [µg/mL]	Accuracy Bias 24 h [1, 19] [%]	Accuracy Bias Autosampler (4 °C; 8 h) [1, 20] [%]	Accuracy Bias Long-term (−70°C; 1 month) [1, 20] [%]	Observed Conc. Autosampler (4 °C; 8 h) [1, 21] [µg/mL]	Observed Conc. Long-term (−70 °C; 1 month) [1, 21] [µg/mL]	Accuracy Bias Autosampler (4 °C; 8 h) [1, 22] [%]	further results
C[C@@H]1O[C@@H](OC[C@H]2O[C@@H](Oc3c(-c4ccc(O)c(O)c4)oc4cc(O)cc(O)c4c3=O)[C@H](O)[C@@H](O)[C@@H]2O)[C@H](O)[C@H](O)[C@H]1O [Rutin, rutin]	−1.99	7.27 ± 0.41	5.76	1.74 ± 0.11	3.17	−2.45	7.17 ± 0.21	5.46	1.65 ± 0.10	−4.97	−3.93	7.13 ± 0.24	0.33	1.64 ± 0.10	2.93	−1.17	−1.56	7.08 ± 0.34	7.10 ± 0.38	−6.41	Observed Conc. 0 h [1]: 3.39 ± 0.16 µg/mL; Observed Conc. 8 h [1]: 3.67 ± 0.30 µg/mL; Observed Conc. 24 h [1]: 3.38 ± 0.27 µg/mL; Observed Conc. Autosampler (4 °C; 8 h) [1]: 3.44 ± 0.15 µg/mL; Observed Conc. Long-term (−70 °C; 1 month) [1]: 3.51 ± 0.28 µg/mL; Accuracy Bias Long-term (−70°C; 1 month) [1, 22]: 2.92%; Observed Conc. Autosampler (4 °C; 8 h) [1, 23]: 1.86 ± 0.19 µg/mL; Observed Conc. Long-term (−70 °C; 1 month) [1, 23]: 1.69 ± 0.12 µg/mL; Accuracy Bias Autosampler (4 °C; 8 h) [1, 24]: 1.58%; Accuracy Bias Long-term (−70°C; 1 month) [1, 24]: −0.45%; flavonoids found in the plasma after oral administration [2]: not found; absorption into the vascular space after oral administration [3]: not absorbed
O=C(/C=C/c1ccc(O)cc1)OC[C@H]1O[C@@H](Oc2c(-c3ccc(O)cc3)oc3cc(O)cc(O)c3c2=O)[C@H](O)[C@@H](O)[C@@H]1O [Tiliroside, tiliroside]	1.35	43.77 ± 4.28	4.59	10.54 ± 0.74	3.36	−0.64	44.65 ± 4.37	6.26	10.33 ± 0.61	−2.95	7.03	41.25 ± 2.04	4.48	10.53 ± 0.79	7.14	3.66	0.24	42.74 ± 3.40	44.26 ± 2.49	3.97	Observed Conc. 0 h ([1]; room temperature (25 °C), 0 h, medium nominal conc. (rutin 3.50; quercetin glucoside, quercitrin, tiliroside 22.18; kaempferol 2.24; m-HPAA, p-HPAA, DOPAC 7.81 µg/mL), n = 6): 21.44 ± 2.13 µg/mL; Observed Conc. 8 h ([1]; room temperature (25 °C), 8 h, medium nominal conc. (3.50; 22.18; 2.24; 7.81 µg/mL), n = 6): 22.84 ± 2.57 µg/mL; Observed Conc. 24 h ([1]; room temperature (25 °C), 24 h, medium nominal conc. (3.50; 22.18; 2.24; 7.81 µg/mL), n = 6): 20.60 ± 2.05 µg/mL; Accuracy Bias Long-term (−70°C; 1 month) [1, 22]: 5.54%; Observed Conc. Autosampler (4 °C; 8 h) [1, 23]: 10.58 ± 0.81 µg/mL; Observed Conc. Long-term (−70 °C; 1 month) [1, 23]: 10.40 ± 0.99 µg/mL; Accuracy Bias Autosampler (4 °C; 8 h) [1, 24]: −3.45%; Accuracy Bias Long-term (−70°C; 1 month) [1, 24]: 3.42%; Observed Conc. Autosampler (4 °C; 8 h) [1, 25]: 22.94 ± 2.25 µg/mL; Observed Conc. Long-term (−70 °C; 1 month) [1, 25]: 21.41 ± 1.82 µg/mL; flavonoids found in the plasma after oral administration [2]: not found; permeability to the intestinal epithelial cells [4]: completely impermeable
